Experimental data published in publication PMC6466477 (Journal of Medicinal Chemistry, 2019).

Key:
hA3AR [1] = target: T1, hA3AR (Homo sapiens, UniProt P0DMS8); type: biochemical; settings: for mode of antagonism: [35S]GTPγS binding assays, overall; for Schild slope, co-incubation: antagonist co-incubated with 2-Cl-IB-MECA for 30 min at 25 °C; for type of antagonism in co-incubation experiment: co-incubated with 2-Cl-IB-MECA; for type of antagonism in preincubation experiment: pretreatment with antagonist before 2-Cl-IB-MECA
T1 sequence (P0DMS8 1-318): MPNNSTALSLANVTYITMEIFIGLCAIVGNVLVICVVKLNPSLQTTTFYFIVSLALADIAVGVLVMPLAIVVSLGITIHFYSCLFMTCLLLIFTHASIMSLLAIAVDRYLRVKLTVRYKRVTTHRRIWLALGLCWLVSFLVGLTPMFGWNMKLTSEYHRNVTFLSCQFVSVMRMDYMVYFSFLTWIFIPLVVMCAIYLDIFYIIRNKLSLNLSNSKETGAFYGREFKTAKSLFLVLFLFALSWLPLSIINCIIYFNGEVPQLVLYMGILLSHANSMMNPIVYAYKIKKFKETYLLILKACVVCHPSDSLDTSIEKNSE

hA3AR [2] = target: T1, hA3AR; experiment: Radioligand competition association assay with [3H]PSB-11; type: binding; settings: competition association curve, Figure 3
hA3AR [3] = target: T1, hA3AR; experiment: Time-dependent [3H]PSB-11 displacement with or without 4 h preincubation; type: binding; settings: no preincubation, 0.5 h co-incubation with [3H]PSB-11, 25 °C
hA3AR [4] = target: T1, hA3AR; settings: 25 °C; ref 7 (Xia et al.); cited from earlier work

Row | Schild slope, preincubation (hA3AR [1]; antagonist preincubated 60 min at 25 °C before 2-Cl-IB-MECA for 30 min) | time to reach equilibrium (hA3AR [2]) [min] | hA3AR pKi (pre-0 h) (hA3AR [3]) | SMILES | mode of antagonism (hA3AR [1]) | Schild slope, co-incubation (hA3AR [1]) | type of antagonism in co-incubation experiment (hA3AR [1]) | type of antagonism in preincubation experiment (hA3AR [1]) | koff (k2) of radioligand (hA3AR [4]) [min^–1] | kon (k1) of radioligand (hA3AR [4])
1 | 1.1 ± 0.1 | ≤ 30 | 6.2 ± 0.03 | CCCn1c(=O)c2c(nc3cc(OC)ccn32)n(CCCNC(=O)c2ccc(S(C)(=O)=O)cc2)c1=O [compound 19, N-(3-(8-Methoxy-2,4-dioxo-3-propyl-3,4-dihydropyrido[2,1-f]purin-1(2H)-yl)propyl)-4-(methylsulfonyl)benzamide] | competitive surmountable | 1.0 ± 0.1 | surmountable antagonism | surmountable antagonism | – | –
2 | – | – | – | CC[C@@H]1CN2C(=O)N(C)c3nc(-c4ccccc4)[nH]c3C2=N1 [[^3H]PSB-11, [^3H]8-Ethyl-4-methyl-2-phenyl-(8R)-4,5,7,8-tetrahydro-1H-imidazo[2,1-i]-purin-5-one] | – | – | – | – | 0.3992 ± 0.02 | 0.281 ± 0.04 × 10^8 M^–1 min^–1
3 | – | – | – | CCCn1c(=O)c2c(nc3cc(OC)ccn32)n(CCCNC(=O)c2ccc(S(=O)(=O)F)cc2)c1=O [compound 17b, 4-((3(8-Methoxy-2,4-dioxo-3-propyl-3,4-dihydropyrido[2,1-f]purin-1(2H)yl)propyl)carbamoyl)benzenesulfonyl Fluoride] | competitive insurmountable | 1.1 ± 0.1 | surmountable antagonism | insurmountable antagonism | – | –
